# Assay results taken from patent US5420335A, “Parenteral nutrients based on watersoluble glycerol bisacetoacetates” (priority 1993, dated 1995).
# Values joined by “and” are separate entries in the source; they are usually repeats but may differ in a detail not shown here. Identical values can stand only once. “Also recorded” adds a separate entry of the source.
# What was measured:
# Assay type in all cases: in vivo, rat (male Sprague-Dawley)
# [1] = Oral dietary nitrogen (food) intake of intravenously infused rats; conditions: for Dietary Nitrogen Intake: Table 1, Example 2
# Method: (§1) Water was available ad libitum at all times.
# (§2) The vein was then ligated dorsally to the catheter. […] Body weights were measured daily.
# (§3) Infusate volume, oral food intake, body weight and urinary volume and total nitrogen were monitored daily for each rat. Infusate volume and food intake were determined by weighing the appropriate container at the start and end of each 24 hr. period. Measurements were recorded between 9 and 10 AM each day. At the end of the 7th day, rats were sacrificed, and blood and liver were harvested. Plasma was separated for measurement of free fatty acids, glucose, and ketone bodies. Liver was weighed and a sample was fixed in buffered formalin for gross histology.
# (§4) The data were analyzed for significance by the one-way analysis of variance with repeated measures and comparing the effect of dietary treatment on each day. […] The null hypothesis was concluded invalid if p≤0.05. The analysis of variance was computed on a SAS statistical package.
# (§5) This compound has an estimated energy density of 4.86 kcal/gram based on thermodynamic data from similar compounds.
# [2] = Plasma free fatty acids, glucose and ketone bodies after 7 days of infusion; conditions: for T.KB: total ketone bodies
# Method: as §3, §4
# [3] = Nitrogen balance (difference between intake and urinary output); conditions: for Nitrogen Balance, Difference Between Intake and Output: Table 3, Example 2
# Method: as §1, §2, §3, §4
# FIG. 3 illustrates the difference between oral intake and urinary nitrogen output which is termed nitrogen balance. It is representative of nitrogen balance because urinary nitrogen is the major route for body loss of nitrogen.
# The experimental compound contains 8% nitrogen. With an infusion of 5.6 grams/day, infused nitrogen would provide approximately 450 mg more than that listed in the data tables. The final balance figures includes this number which is calculated based on the actual daily infusion rate for each rat.
# [4] = Daily body weight of intravenously infused rats
# Method: as §1, §2, §3, §4, §5
# [5] = Table 5, Example 2, plasma, end of day 7, average of 7 rats
# [6] = Table 5, Example 2, plasma, end of day 7, individual rat
# [7] = Table 11, Example 4, plasma, average
# [8] = Table 11, Example 4, plasma, individual rat
smiles,measurement,setting,value
"OC[C@H]1OC(O)[C@H](O)[C@@H](O)[C@@H]1O (some centres unmarked) [Glucose, glucose, reference compound]",Dietary Nitrogen Intake,"[1]; day 1, individual rat",111.86 MG N and 164.5 MG N and 486.92 MG N and 269.78 MG N
same,Dietary Nitrogen Intake,"[1]; day 2, individual rat",217.14 MG N and 85.54 MG N and 427.7 MG N and 144.76 MG N and 493.5 MG N and 526.4 MG N
same,Dietary Nitrogen Intake,"[1]; day 3, individual rat",151.34 MG N and 118.44 MG N and 559.3 MG N and 52.64 MG N and 250.04 MG N and 276.36 MG N and 631.68 MG N
same,Dietary Nitrogen Intake,"[1]; day 4, individual rat",131.6 MG N and 118.44 MG N and 572.46 MG N and 98.7 MG N and 394.8 MG N and 414.54 MG N and 526.4 MG N
same,Dietary Nitrogen Intake,"[1]; day 5, individual rat",236.88 MG N and 230.3 MG N and 407.96 MG N and 157.92 MG N and 223.72 MG N and 217.14 MG N and 559.3 MG N
same,Dietary Nitrogen Intake,"[1]; day 6, average of 7 rats",303 MG N
same,Dietary Nitrogen Intake,"[1]; day 6, individual rat",118.44 MG N and 105.28 MG N and 243.46 MG N and 342.16 MG N and 289.52 MG N and 375.06 MG N and 644.84 MG N
same,Dietary Nitrogen Intake,"[1]; day 7, individual rat",177.66 MG N and 157.92 MG N and 269.78 MG N and 526.4 MG N and 210.56 MG N and 473.76 MG N and 664.58 MG N
same,appetite depression,"[1]; in words, Example 4",glucose induced better appetite depression than did the experimental compound
same,differences in dietary nitrogen intake among the three groups,"[1]; in words, vs saline and other groups, 7 days",no differences in dietary nitrogen intake among the three groups
same,ACAC,[2]; [5],0.088 mmol/L
same,BOHB,[2]; [5],0.505 mmol/L
same,FFa,[2]; [5],0.564 mmol/L
same,Glucose,[2]; [5],185.423 mg/dL
same,ACAC,[2]; [6],0.020 mmol/L and 0.066 mmol/L and 0.194 mmol/L and 0.096 mmol/L and 0.017 mmol/L and 0.031 mmol/L
same,BOHB,[2]; [6],0.385 mmol/L and 0.476 mmol/L and 0.533 mmol/L and 0.332 mmol/L and 0.358 mmol/L and 1.086 mmol/L and 0.363 mmol/L
same,FFa,[2]; [6],0.337 mmol/L and 0.976 mmol/L and 0.850 mmol/L and 0.816 mmol/L and 0.168 mmol/L and 0.483 mmol/L and 0.316 mmol/L
same,Glucose,[2]; [6],196.840 mg/dL and 161.300 mg/dL and 162.620 mg/dL and 164.800 mg/dL and 237.100 mg/dL and 228.500 mg/dL
same,T.KB,[2]; [5],0.593 mmol/L
same,T.KB,[2]; [6],0.405 mmol/L and 0.542 mmol/L and 0.727 mmol/L and 0.427 mmol/L and 0.375 mmol/L and 1.280 mmol/L and 0.394 mmol/L
same,ACAC,[2]; [7],0.029 mmol/L
same,BOHB,[2]; [7],0.512 mmol/L
same,Glucose,[2]; [7],214.433 mg/dL
same,Total FFA,[2]; [7],0.341 mmol/L
same,ACAC,[2]; [8],0.0085 mmol/L and 0.1195 mmol/L and 0.0177 mmol/L and 0.0095 mmol/L and 0.0038 mmol/L and 0.0145 mmol/L
same,BOHB,[2]; [8],0.5282 mmol/L and 0.5088 mmol/L and 0.5936 mmol/L and 0.2075 mmol/L and 0.6958 mmol/L and 0.6475 mmol/L and 0.3727 mmol/L and 0.4066 mmol/L and 0.651 mmol/L
same,Glucose,[2]; [8],263.3 mg/dL and 203.5 mg/dL and 429.3 mg/dL and 208 mg/dL and 284.8 mg/dL and 163.5 mg/dL and 124.9 mg/dL and 116.6 mg/dL
same,Total FFA,[2]; [8],0.327 mmol/L and 0.231 mmol/L and 0.462 mmol/L and 0.434 mmol/L and 0.525 mmol/L and 0.303 mmol/L and 0.206 mmol/L and 0.395 mmol/L and 0.19 mmol/L
same,blood / plasma glucose,"[2]; in words, end of day 7",significantly elevatea plasma glucose; also recorded: higher for glucose infused rats than for the other two groups
same,free fatty acid concentration,"[2]; in words, plasma, end of day 7",not different for the three groups
same,nitrogen balance,"[3]; Example 2, 7 days",around +100 mg/day
same,nitrogen balance,"[3]; Example 4, infused nitrogen considered (FIG. 8)",over 200 mg/day
same,"Nitrogen Balance, Difference Between Intake and Output","[3]; day 1, average of 7 rats",59 MG N
same,"Nitrogen Balance, Difference Between Intake and Output","[3]; day 1, individual rat",-52.22 MG N and 72.46 MG N and -54.7 MG N and 31.61 MG N and 33.35 MG N and 204.48 MG N and 181.5 MG N
same,"Nitrogen Balance, Difference Between Intake and Output","[3]; day 2, average of 7 rats",156 MG N
same,"Nitrogen Balance, Difference Between Intake and Output","[3]; day 2, individual rat",85.19 MG N and 10.96 MG N and 116 MG N and 69.7 MG N and 102.25 MG N and 269.41 MG N and 438.03 MG N
same,"Nitrogen Balance, Difference Between Intake and Output","[3]; day 3, average of 7 rats",88 MG N
same,"Nitrogen Balance, Difference Between Intake and Output","[3]; day 3, individual rat",92.92 MG N and 23.56 MG N and -40.36 MG N and -62.37 MG N and 104.99 MG N and 102.06 MG N and 394.76 MG N
same,"Nitrogen Balance, Difference Between Intake and Output","[3]; day 4, average of 7 rats",193 MG N
same,"Nitrogen Balance, Difference Between Intake and Output","[3]; day 4, individual rat",21.88 MG N and 37.92 MG N and 298.24 MG N and 5.39 MG N and 316.2 MG N and 269.11 MG N and 402.28 MG N
same,"Nitrogen Balance, Difference Between Intake and Output","[3]; day 5, average of 7 rats",113 MG N
same,"Nitrogen Balance, Difference Between Intake and Output","[3]; day 5, individual rat",125.86 MG N and 104.41 MG N and 91.79 MG N and 73.12 MG N and -0.62 MG N and -24.03 MG N and 421.33 MG N
same,"Nitrogen Balance, Difference Between Intake and Output","[3]; day 6, average of 7 rats",124 MG N
same,"Nitrogen Balance, Difference Between Intake and Output","[3]; day 6, individual rat",3.77 MG N and 39.74 MG N and 16.23 MG N and 206.92 MG N and 170.57 MG N and 41.21 MG N and 392.42 MG N
same,"Nitrogen Balance, Difference Between Intake and Output","[3]; day 7, average of 7 rats",137 MG N
same,"Nitrogen Balance, Difference Between Intake and Output","[3]; day 7, individual rat",105.77 MG N and 52.38 MG N and -205.13 MG N and 366.51 MG N and 85.9 MG N and 206.76 MG N and 345.19 MG N
same,nitrogen balance,"[3]; in words, 7 days",positive nitrogen balances
same,Daily Body Weight,"[4]; Table 4, Example 2, day 0, average of 7 rats",258 Grams
same,Daily Body Weight,"[4]; Table 4, Example 2, day 0, individual rat",244 Grams and 228 Grams and 290 Grams and 250 Grams and 247 Grams and 281 Grams and 269 Grams
same,Daily Body Weight,"[4]; Table 4, Example 2, day 1, average of 7 rats",262 Grams
same,Daily Body Weight,"[4]; Table 4, Example 2, day 1, individual rat",238 Grams and 217 Grams and 329 Grams and 236 Grams and 244 Grams and 286 Grams and 284 Grams
same,Daily Body Weight,"[4]; Table 4, Example 2, day 2, average of 7 rats",257 Grams
same,Daily Body Weight,"[4]; Table 4, Example 2, day 2, individual rat",234 Grams and 211 Grams and 298 Grams and 233 Grams and 248 Grams and 293 Grams and 281 Grams
same,Daily Body Weight,"[4]; Table 4, Example 2, day 3, average of 7 rats",263 Grams
same,Daily Body Weight,"[4]; Table 4, Example 2, day 3, individual rat",229 Grams and 209 Grams and 337 Grams and 231 Grams and 266 Grams and 282 Grams and 286 Grams
same,Daily Body Weight,"[4]; Table 4, Example 2, day 4, average of 7 rats",259 Grams
same,Daily Body Weight,"[4]; Table 4, Example 2, day 4, individual rat",232 Grams and 207 Grams and 315 Grams and 226 Grams and 246 Grams and 295 Grams and 291 Grams
same,Daily Body Weight,"[4]; Table 4, Example 2, day 5, average of 7 rats",251 Grams
same,Daily Body Weight,"[4]; Table 4, Example 2, day 5, individual rat",232 Grams and 212 Grams and 278 Grams and 222 Grams and 240 Grams and 279 Grams and 294 Grams
same,Daily Body Weight,"[4]; Table 4, Example 2, day 6, average of 7 rats",255 Grams
same,Daily Body Weight,"[4]; Table 4, Example 2, day 6, individual rat",257 Grams and 230 Grams and 274 Grams and 220 Grams and 238 Grams and 293 Grams
same,Daily Body Weight,"[4]; Table 4, Example 2, day 7, average of 7 rats",249 Grams
same,Daily Body Weight,"[4]; Table 4, Example 2, day 7, individual rat",245 Grams and 228 Grams and 251 Grams and 226 Grams and 230 Grams and 268 Grams and 297 Grams
same,Daily Body Weight,"[4]; Table 10, Example 4, day 0, average of 9 rats",252 Grams
same,Daily Body Weight,"[4]; Table 10, Example 4, day 0, individual rat",254 Grams and 288 Grams and 263 Grams and 251 Grams and 227 Grams and 260 Grams and 249 Grams and 233 Grams and 247 Grams
same,Daily Body Weight,"[4]; Table 10, Example 4, day 1, average of 9 rats",249 Grams
same,Daily Body Weight,"[4]; Table 10, Example 4, day 1, individual rat",247 Grams and 292 Grams and 256 Grams and 225 Grams and 259 Grams and 241 Grams and 227 Grams and 244 Grams
same,Daily Body Weight,"[4]; Table 10, Example 4, day 2, average of 9 rats",252 Grams
